Counter-ions that a name gives are not always drawn. Blank lines part the entries; values can stand above or below the molecule they belong to.
What was measured:
[1] = molecular target: T1, Kv1.5 C500A mutant channel (Homo sapiens, UniProt P22460, C500A); test: Whole-cell patch-clamp block of mutant Kv1.5 current in HEK293 cells; format: cell-based
T1 construct: subcloned as a fragment back into full-length Kv1.5; expressed in transfected cells; host or cells: HEK293, transient transfection
Procedure: (§1) Stable lines of HEK293 cells expressing Kv1.5, or transient transfection of mutant Kv1.5 channels were used in all experiments. […] (Coralville, Iowa, USA), and mutants were generated using the Stratagene Quikchange kit (Stratagene, Calif., USA). […] This was added to the cells for overnight incubation after washing the media with 900 μl of MEM with 10% FBS. […] Media contained 10% bovine serum and 0.5 mg/ml geneticin for stable lines. On the day before recording, stably-expressing cells were washed with MEM, treated with trypsin/EGTA for one minute and plated on 25 mm^2 coverslips. All cell culture supplies were obtained from Invitrogen (Mississauga, ON, Canada). Control bath solution contained (in mM): 5 KCl, 135 NaCl, 2.8 sodium acetate, 1 MgCl2, 10 HEPES and 1 CaCl2, adjusted to pH 7.4 with NaOH. Patch pipettes contained (in mM): 130 KCl, 5 EGTA, 1 MgCl2, 10 HEPES, 4 Na2ATP, and 0.1 GTP, adjusted to pH 7.2 with KOH. All chemicals used to make solutions were obtained from Sigma-Aldrich (Mississauga, ON, Canada). […] (Vancouver, BC, Canada) and prepared as a stock solution (50 mM) in H2O. […] DMSO concentrations for either drug never exceeded 0.1% v/v in the final experimental solutions. Coverslips with adherent cells plated on the surface were placed in a superfusion chamber (volume 300 μl) containing the control bath solution at 22° C. Whole-cell current recording and analysis were carried out using an Axopatch 200B amplifier and pClamp10 software (Axon Instruments, CA, USA). Patch electrodes were pulled from thin-walled borosilicate glass (World Precision Instruments, FL, USA) on a horizontal micropipette puller (Sutter Instruments, CA, USA). […] Analogue capacity compensation and 80% series resistance compensation were used during whole cell measurements. Membrane potentials were not corrected for junction potentials that arise between the pipette and bath solution. […] Data were sampled at 10-20 kHz and filtered at 5 to 10 kHz. […] Data are represented as mean±SE unless otherwise specified. For significance of differences, * represents p<0.05, ** p<0.01; statistical analysis was conducted using Student's t-test (unpaired). Clampfit software (Axon Instruments, CA, USA) was used to analyze current traces. Data from each test pulse (currents in the presence of drug) were normalized to control test pulse currents obtained before drug exposure. […] IC50 is the concentration producing half-maximal inhibition; and n is the Hill coefficient.

[2] = molecular target: T2, Kv1.5 T480A mutant channel (Homo sapiens, UniProt P22460, T480A); test: as above; format: cell-based
T2 construct: subcloned as a fragment back into full-length Kv1.5; expressed in transfected cells; host or cells: HEK293, transient transfection
T2 sequence (P22460 whole entry T480A, the tested form may be a part): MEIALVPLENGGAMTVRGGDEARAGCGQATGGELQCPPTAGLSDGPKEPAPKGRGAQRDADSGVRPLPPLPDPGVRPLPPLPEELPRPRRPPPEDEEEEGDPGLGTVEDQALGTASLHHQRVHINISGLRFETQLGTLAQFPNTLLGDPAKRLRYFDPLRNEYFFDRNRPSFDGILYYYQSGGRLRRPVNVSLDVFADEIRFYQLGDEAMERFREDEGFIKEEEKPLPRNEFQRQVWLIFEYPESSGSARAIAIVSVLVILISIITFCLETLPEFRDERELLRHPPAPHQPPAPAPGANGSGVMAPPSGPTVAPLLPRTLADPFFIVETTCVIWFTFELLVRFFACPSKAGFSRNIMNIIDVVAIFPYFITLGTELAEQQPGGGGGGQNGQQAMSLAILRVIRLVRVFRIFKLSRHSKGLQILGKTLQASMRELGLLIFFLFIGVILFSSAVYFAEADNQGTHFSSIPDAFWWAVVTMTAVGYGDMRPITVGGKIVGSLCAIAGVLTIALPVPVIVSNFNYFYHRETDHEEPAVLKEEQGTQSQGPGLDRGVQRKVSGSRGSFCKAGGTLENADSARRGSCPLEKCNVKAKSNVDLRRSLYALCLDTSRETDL
Procedure: as §1

[3] = molecular target: T3, Kv1.5 A501V mutant channel (Homo sapiens, UniProt P22460, A501V); test: as above; format: cell-based
T3 construct: subcloned as a fragment back into full-length Kv1.5; expressed in transfected cells; host or cells: HEK293, transient transfection
T3 sequence (P22460 whole entry A501V, the tested form may be a part): as the sequence (P22460 whole entry T480A, the tested form may be a part) above, with A480T, A501V counted along it
Procedure: as §1

[4] = molecular target: T4, Kv1.5 T480S mutant channel (Homo sapiens, UniProt P22460, T480S); test: as above; format: cell-based
T4 construct: subcloned as a fragment back into full-length Kv1.5; expressed in transfected cells; host or cells: HEK293, transient transfection
T4 sequence (P22460 whole entry T480S, the tested form may be a part): as the sequence (P22460 whole entry T480A, the tested form may be a part) above, with A480S counted along it
Procedure: as §1

[5] = molecular target: T5, Kv1.5 P532L mutant channel (Homo sapiens, UniProt P22460, P532L); test: as above; format: cell-based
T5 construct: subcloned as a fragment back into full-length Kv1.5; expressed in transfected cells; host or cells: HEK293, transient transfection
T5 sequence (P22460 whole entry P532L, the tested form may be a part): as the sequence (P22460 whole entry T480A, the tested form may be a part) above, with A480T, P532L counted along it
Procedure: as §1

[6] = molecular target: T6, Kv1.5 I508Y mutant channel (Homo sapiens, UniProt P22460, I508Y); test: as above; format: cell-based
T6 construct: subcloned as a fragment back into full-length Kv1.5; expressed in transfected cells; host or cells: HEK293, transient transfection
T6 sequence (P22460 whole entry I508Y, the tested form may be a part): as the sequence (P22460 whole entry T480A, the tested form may be a part) above, with A480T, I508Y counted along it
Procedure: as §1

[7] = molecular target: T7, Kv1.5 I508L mutant channel (Homo sapiens, UniProt P22460, I508L); test: as above; format: cell-based
T7 construct: subcloned as a fragment back into full-length Kv1.5; expressed in transfected cells; host or cells: HEK293, transient transfection
T7 sequence (P22460 whole entry I508L, the tested form may be a part): as the sequence (P22460 whole entry T480A, the tested form may be a part) above, with A480T, I508L counted along it
Procedure: as §1

[8] = molecular target: T8, Kv1.5 V505L mutant channel (Homo sapiens, UniProt P22460, V505L); test: as above; format: cell-based
T8 construct: subcloned as a fragment back into full-length Kv1.5; expressed in transfected cells; host or cells: HEK293, transient transfection
T8 sequence (P22460 whole entry V505L, the tested form may be a part): as the sequence (P22460 whole entry T480A, the tested form may be a part) above, with A480T, V505L counted along it
Procedure: as §1

[9] = molecular target: T9, Kv1.5 T479S mutant channel (Homo sapiens, UniProt P22460, T479S); test: as above; format: cell-based
T9 construct: subcloned as a fragment back into full-length Kv1.5; expressed in transfected cells; host or cells: HEK293, transient transfection
T9 sequence (P22460 whole entry T479S, the tested form may be a part): as the sequence (P22460 whole entry T480A, the tested form may be a part) above, with T479S, A480T counted along it
Procedure: as §1

IKs (KvLQT1) = IKs (KvLQT1) (Homo sapiens, UniProt P51787); test: Sensitivity of IKs channel to vernakalant (unpublished data)
Sequence of IKs (KvLQT1) (P51787 whole entry): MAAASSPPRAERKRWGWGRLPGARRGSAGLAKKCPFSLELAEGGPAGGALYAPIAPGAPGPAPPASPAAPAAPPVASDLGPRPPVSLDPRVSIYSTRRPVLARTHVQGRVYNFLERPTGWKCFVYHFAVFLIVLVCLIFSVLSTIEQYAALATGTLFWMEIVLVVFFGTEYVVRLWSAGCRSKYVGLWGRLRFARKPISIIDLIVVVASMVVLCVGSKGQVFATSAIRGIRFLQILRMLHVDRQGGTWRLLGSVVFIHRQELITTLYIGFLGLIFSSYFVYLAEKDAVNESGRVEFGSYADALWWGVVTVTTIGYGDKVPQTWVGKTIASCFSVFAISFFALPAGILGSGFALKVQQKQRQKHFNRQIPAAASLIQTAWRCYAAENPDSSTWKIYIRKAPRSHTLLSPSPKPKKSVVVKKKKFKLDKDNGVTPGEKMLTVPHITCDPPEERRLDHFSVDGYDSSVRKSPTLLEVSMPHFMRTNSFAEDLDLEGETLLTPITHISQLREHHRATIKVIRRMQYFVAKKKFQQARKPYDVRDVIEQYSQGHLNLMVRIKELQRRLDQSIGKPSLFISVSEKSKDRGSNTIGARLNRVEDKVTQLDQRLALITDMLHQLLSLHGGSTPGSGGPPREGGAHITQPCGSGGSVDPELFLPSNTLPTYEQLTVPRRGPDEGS

[10] = molecular target: T10, Kv1.5 V505A mutant channel (Homo sapiens, UniProt P22460, V505A); test: Voltage-dependence of block (Woodhull fit), V505A Kv1.5; format: cell-based
T10 construct: subcloned as a fragment back into full-length Kv1.5; expressed in transfected cells; host or cells: HEK293, transient transfection
T10 sequence (P22460 whole entry V505A, the tested form may be a part): as the sequence (P22460 whole entry T480A, the tested form may be a part) above, with A480T, V505A counted along it
Procedure: Coverslips with adherent cells plated on the surface were placed in a superfusion chamber (volume 300 μl) containing the control bath solution at 22° C. Whole-cell current recording and analysis were carried out using an Axopatch 200B amplifier and pClamp10 software (Axon Instruments, CA, USA). Patch electrodes were pulled from thin-walled borosilicate glass (World Precision Instruments, FL, USA) on a horizontal micropipette puller (Sutter Instruments, CA, USA). […] Analogue capacity compensation and 80% series resistance compensation were used during whole cell measurements. Membrane potentials were not corrected for junction potentials that arise between the pipette and bath solution. For Kv1.5 current recordings, a holding potential of −80 mV was used. Data were sampled at 10-20 kHz and filtered at 5 to 10 kHz. To assess drug block, half-log escalating concentrations of drug were added to the flowing bath solution and current traces were recorded with 400 ms depolarizing pulses to +60 mV at a frequency of 0.1 Hz.
f=[D]/([D]+Kd*e^−δzFE/RT)
where F, R, z and T have their usual meanings, δ represents the fractional electrical distance, i.e., the fraction of the transmembrane electrical field sensed by a single charge at the receptor site. […] The current amplitude (Idrug and Icontrol) was measured at the end of a 400 ms depolarization. […]

T1 sequence (P22460 whole entry C500A, the tested form may be a part): as the sequence (P22460 whole entry T480A, the tested form may be a part) above, with A480T, C500A counted along it

Compound: COc1ccc(CCO[C@@H]2CCCC[C@H]2N2CC[C@@H](O)C2)cc1OC [Vernakalant, 3-Pyrrolidinol, 1-[(1R,2R)-2-[2-(3,4-dimethoxyphenyl)ethoxy]cyclohexyl]-,hydrochloride, (3R)]
Hill coefficient [1]: 0.95
Fractional Block ± SEM ([1]; 10 μM vernakalant): 0.21 ± 0.04
Hill coefficient [2]: 0.88
Fractional Block ± SEM ([2]; 10 μM vernakalant): 0.23 ± 0.04
Hill coefficient [3]: 0.85
Fractional Block ± SEM ([3]; 10 μM vernakalant): 0.69 ± 0.04
Hill coefficient [4]: 0.64
Fractional Block ± SEM ([4]; 10 μM vernakalant): 0.25 ± 0.07
Hill coefficient [5]: 0.96
Fractional Block ± SEM ([5]; 10 μM vernakalant): 0.26 ± 0.03
Hill coefficient [6]: 1.46
Fractional Block ± SEM ([6]; 10 μM vernakalant): 0.21 ± 0.03
Hill coefficient [7]: 1.00
Fractional Block ± SEM ([7]; 10 μM vernakalant): 0.38 ± 0.05
Hill coefficient [8]: 0.77
Fractional Block ± SEM ([8]; 10 μM vernakalant): 0.22 ± 0.07
Hill coefficient [9]: 0.95
Fractional Block ± SEM ([9]; 10 μM vernakalant): 0.23 ± 0.04
sensitivity of IKs channel to drug (IKs (KvLQT1)): not sensitive

change in electrical distance versus WT [10]: significant increase in distance
Compound: O=C(NCC1CCCCN1)c1cc(OCC(F)(F)F)ccc1OCC(F)(F)F (centres unmarked) [Flecainide]

From patent publication US20090053721A1, “VOLTAGE-GATED ION CHANNEL MUTANTS FOR USE IN IDENTIFYING ION CHANNEL MODULATING COMPOUNDS” (CARDIOME PHARMA CORP., priority 2007, published 2009)
